Laboratory results reported in paper PMC11093748, “De novo identification of CD4^+ T cell epitopes” (Nature Methods, 2024).

Legend:
Assay type in all cases: cell-based, mouse
[1] = test system: pooled TCR1, TCR2, TCR3, TCR5, TCR7, TCR24, TCR37 with one TCR left out; assay: Multiplexed TCR/library dropout screen, individual ES of each leave-one-out pool; details: for INDIVIDUAL ES LOO_TCR1: leave-one-out pool without TCR1; for INDIVIDUAL ES LOO_TCR2: leave-one-out pool without TCR2; for INDIVIDUAL ES LOO_TCR3: leave-one-out pool without TCR3; for INDIVIDUAL ES LOO_TCR5: leave-one-out pool without TCR5; for INDIVIDUAL ES LOO_TCR7: leave-one-out pool without TCR7; for INDIVIDUAL ES LOO_TCR24: leave-one-out pool without TCR24; for INDIVIDUAL ES LOO_TCR37: leave-one-out pool without TCR37
Description: Supplement 41592_2024_2255_MOESM7_ESM.xlsx, sheet "leave-one-out analysis" | column: LOO_TCR1; LOO_TCR2; LOO_TCR3; LOO_TCR5; LOO_TCR7; LOO_TCR24; LOO_TCR37

4-8Ins TCR = assay: I-Ag7 SABR-II library screen, enrichment score
Description: (§1) We then asked whether SABR-IIs could be used to present a library of epitopes for CD4^+ T cell antigen discovery. To that end, we constructed a SABR-II library to present epitopes derived from pancreatic islets in I-Ag7 by curating a list of 4,075 published epitopes from the Immune Epitope Database (iedb.org)[50] and a study by Wan et al.[51] (Supplementary Table 1). Of note, this defined library consisted of unmodified epitopes from endogenous proteins, synthetic mimotopes, deamidated epitopes and hybrid insulin peptides (HIPs) that arise from post-translational fusion and are not genetically encoded in vivo[52],[53]. The epitope library was inserted into the I-Ag7 SABR-II backbone through pooled oligonucleotide synthesis, amplification and ligation-free cloning (Extended Data Fig. 3a). The I-Ag7 SABR-II-library was then expressed in NFAT–GFP Jurkat cells. We confirmed that after sequencing, the library accounted for a mean of 708 reads per epitope (Extended Data Fig. 3b). As a proof of concept, we performed co-incubation assays with Jurkat cells expressing the BDC2.5 TCR and sorted the top 1–2% of GFP^+CD69^+ cells at a rate of ~20 min per replicate with three replicates per TCR. We extracted the genomic DNA from sorted cells, amplified the SABR portion of the integrated proviruses and subjected the amplicons to Illumina sequencing (Extended Data Fig. 3c,d). The 1–2% sort gate represents >50-fold enrichment of cognate epitopes with minimal loss of signal (Extended Data Fig. 3e–h). Sequence reads were aligned to the I-Ag7 SABR-II backbone and the corresponding epitopes were scored based on their read counts. For each TCR under investigation, an enrichment score (ES) was determined for all the epitopes in a library. In each experiment, three replicates of a sort with TCR-expressing Jurkat cells were performed and reads were counted post-sequencing. In addition, three replicates of the unsorted library were also sequenced. A linear regression model was built using the unsorted library counts and used to determine the expected abundance of each epitope in the library. The ES was calculated based on the difference between the measured and the expected abundance of each epitope on a per-TCR basis (Fig. 1e). Based on ES values, two quantitative thresholds were used to determine putative cognate epitopes of a given TCR. A high-confidence zone containing clear outliers with a high ES and a low-confidence zone containing weak outliers with a moderately high ES were determined (Fig. 1e). This two-tiered strategy was used to call putative hits from screens. All the top-scoring epitopes for the BDC2.5 TCR were known BDC2.5 ligands containing the WXRM(D/E) motif (Fig. 1f,g, enriched ligands in red), a well-characterized trait of the BDC2.5 TCR[43],[54]–[56]. Across several independent experiments there was limited variation in ES values for the same TCRs and several epitopes fell into high- or low-confidence zones consistently (Extended Data Fig. 4a). Using a different TCR that was isolated from NOD mice, 4-8Ins[57], which recognized the InsB9:23 epitope ([…]), we observed a similar pattern of ES for cognate epitopes (Extended Data Fig. 4b).
(§2) For SABR library screens, 3 × 10^6 NFAT–GFP Jurkat cells expressing the SABR library were labeled with CellTrace Violet (BioLegend) according to the manufacturer’s protocol before incubation with 3 × 10^6 Jurkat cells expressing the TCR of interest. These mixtures were incubated in a six-well plate for 16–20 h. Cells were stained with anti-CD69-APC-Cy7 where indicated (BioLegend) and the top 1–2% of GFP^+CD69^+ cells were sorted for genomic DNA extraction, indexing and sequencing (see below). Multiplexed assays were scaled on a per-TCR basis (for example 3 × 10^6 for each of three TCRs against 9 × 10^6 library cells). […]

BDC2.5 TCR = assay: I-Ag7 SABR-II library screen, enrichment score; details: for Enrichment score: I-Ag7 library; for Enrichment score EXPT1 / Enrichment score EXPT2 / Enrichment score EXPT3 / Enrichment score EXPT5 / Enrichment score EXPT7 / Enrichment score EXPT8: sheet Fig 1F, whole library; for Enrichment score EXPT1: independent biological experiment 1 of 8; for Enrichment score EXPT2: independent biological experiment 2 of 8; for Enrichment score EXPT3: independent biological experiment 3 of 8; for Enrichment score EXPT5: independent biological experiment 5 of 8; for Enrichment score EXPT7: independent biological experiment 7 of 8; for Enrichment score EXPT8: independent biological experiment 8 of 8
Description: as §1, §2

[2] = EXPT1 of 3 biological experiments
[3] = EXPT1 of 8 biological experiments
[4] = one biological experiment (Ext. Data Fig. 6B)

Sequence	INDIVIDUAL ES LOO_TCR1 [1]	INDIVIDUAL ES LOO_TCR2 [1]	INDIVIDUAL ES LOO_TCR3 [1]	INDIVIDUAL ES LOO_TCR5 [1]	INDIVIDUAL ES LOO_TCR7 [1]	INDIVIDUAL ES LOO_TCR24 [1]	INDIVIDUAL ES LOO_TCR37 [1]	Enrichment score (4-8Ins TCR; [2])	Enrichment score (4-8Ins TCR; EXPT2 of 3)	Enrichment score (4-8Ins TCR; EXPT3 of 3)	Enrichment score (BDC2.5 TCR; [3])	Enrichment score (BDC2.5 TCR; EXPT2 of 8)	Enrichment score (BDC2.5 TCR; EXPT3 of 8)	Enrichment score (BDC2.5 TCR; EXPT4 of 8)	Enrichment score (BDC2.5 TCR; EXPT6 of 8)	Enrichment score (BDC2.5 TCR; EXPT7 of 8)	Enrichment score (BDC2.5 TCR; EXPT8 of 8)	Enrichment score (BDC2.5 TCR; [4])	Enrichment score EXPT1 (BDC2.5 TCR)	Enrichment score EXPT2 (BDC2.5 TCR)	further results
ALVREGLRNVAAGANP	-1.224e-5	-1.224e-5	-1.224e-5	-1.224e-5	-1.224e-5	-1.224e-5	-1.224e-5	-1.064e-5	-1.266e-5	-8.85e-6	-1.509e-5	-2.732e-5	-2.567e-5	-1.199e-5	-1.468e-5	-1.252e-5	-2.71e-5	-2.567e-5	-2.732e-5	-1.509e-5	Enrichment score EXPT3 (BDC2.5 TCR): -2.567e-5; Enrichment score EXPT5 (BDC2.5 TCR): -3.182e-5; Enrichment score EXPT7 (BDC2.5 TCR): -1.252e-5; Enrichment score EXPT8 (BDC2.5 TCR): -2.71e-5
AKAAVEEGIVAGGGV	-3.982e-5	-3.046e-5	-2.304e-5	-3.485e-6	9.492e-5	4.6789e-5	6.867e-6	-1.842e-5	0.0001302	-6.807e-5	-0.0001132	-8.351e-5	-9.939e-5	5.807e-5	0.0001711	8.834e-6	1.023e-7	-9.939e-5	-8.351e-5	-0.0001132	Enrichment score EXPT3 (BDC2.5 TCR): -9.939e-5; Enrichment score EXPT5 (BDC2.5 TCR): 0.0002581; Enrichment score EXPT7 (BDC2.5 TCR): 8.834e-6; Enrichment score EXPT8 (BDC2.5 TCR): 1.023e-7
AEKVRNLPAGHGLNAQ	5.319e-5	-0.0001199	-3.193e-5	1.335e-5	-1.1271e-5	-8.015e-5	-1.6913e-5	-3.1932e-6	0.0001517	-4.244e-5	2.296e-5	1.2173e-5	6.168e-6	0.0002539	-2.745e-5	9.062e-5	9.25e-5	6.168e-6	1.2173e-5	2.296e-5	Enrichment score EXPT3 (BDC2.5 TCR): 6.168e-6; Enrichment score EXPT5 (BDC2.5 TCR): 8.842e-5; Enrichment score EXPT7 (BDC2.5 TCR): 9.062e-5; Enrichment score EXPT8 (BDC2.5 TCR): 9.25e-5
AAVEEGIVAGGGVTLL	-4.978e-5	-3.795e-6	1.5842e-5	3.701e-5	1.545e-5	-1.25e-6	-5.451e-6	6.335e-5	-6.366e-5	-1.563e-5	-2.818e-5	-9.793e-5	0.0001628	-0.0001173	0.0001045	-9.918e-5	-0.0001409	0.0001628	-9.793e-5	-2.818e-5	Enrichment score EXPT3 (BDC2.5 TCR): 0.0001628; Enrichment score EXPT5 (BDC2.5 TCR): 9.606e-5; Enrichment score EXPT7 (BDC2.5 TCR): -9.918e-5; Enrichment score EXPT8 (BDC2.5 TCR): -0.0001409
AGGVAVIKAGAATEV	2.749e-5	9.403e-5	-4.985e-5	2.576e-5	3.872e-6	-1.653e-5	5.688e-5	2.615e-5	-2.489e-5	4.9e-5	-4.65e-5	5.397e-5	2.078e-5	2.834e-5	-5.5015e-5	-7.0061e-5	-2.822e-5	2.078e-5	5.397e-5	-4.65e-5	Enrichment score EXPT3 (BDC2.5 TCR): 2.078e-5; Enrichment score EXPT5 (BDC2.5 TCR): 9.8885e-5; Enrichment score EXPT7 (BDC2.5 TCR): -7.0061e-5; Enrichment score EXPT8 (BDC2.5 TCR): -2.822e-5
